Data: ChEMBL document CHEMBL1148283 (J Med Chem, 2004)

Tests used:
Nitric oxide synthase 3 = molecular target: T1, Nitric oxide synthase 3 (Homo sapiens, UniProt P29474); assay: In vitro inhibition of human endothelial nitric oxide synthase.
T1 sequence (P29474 whole entry): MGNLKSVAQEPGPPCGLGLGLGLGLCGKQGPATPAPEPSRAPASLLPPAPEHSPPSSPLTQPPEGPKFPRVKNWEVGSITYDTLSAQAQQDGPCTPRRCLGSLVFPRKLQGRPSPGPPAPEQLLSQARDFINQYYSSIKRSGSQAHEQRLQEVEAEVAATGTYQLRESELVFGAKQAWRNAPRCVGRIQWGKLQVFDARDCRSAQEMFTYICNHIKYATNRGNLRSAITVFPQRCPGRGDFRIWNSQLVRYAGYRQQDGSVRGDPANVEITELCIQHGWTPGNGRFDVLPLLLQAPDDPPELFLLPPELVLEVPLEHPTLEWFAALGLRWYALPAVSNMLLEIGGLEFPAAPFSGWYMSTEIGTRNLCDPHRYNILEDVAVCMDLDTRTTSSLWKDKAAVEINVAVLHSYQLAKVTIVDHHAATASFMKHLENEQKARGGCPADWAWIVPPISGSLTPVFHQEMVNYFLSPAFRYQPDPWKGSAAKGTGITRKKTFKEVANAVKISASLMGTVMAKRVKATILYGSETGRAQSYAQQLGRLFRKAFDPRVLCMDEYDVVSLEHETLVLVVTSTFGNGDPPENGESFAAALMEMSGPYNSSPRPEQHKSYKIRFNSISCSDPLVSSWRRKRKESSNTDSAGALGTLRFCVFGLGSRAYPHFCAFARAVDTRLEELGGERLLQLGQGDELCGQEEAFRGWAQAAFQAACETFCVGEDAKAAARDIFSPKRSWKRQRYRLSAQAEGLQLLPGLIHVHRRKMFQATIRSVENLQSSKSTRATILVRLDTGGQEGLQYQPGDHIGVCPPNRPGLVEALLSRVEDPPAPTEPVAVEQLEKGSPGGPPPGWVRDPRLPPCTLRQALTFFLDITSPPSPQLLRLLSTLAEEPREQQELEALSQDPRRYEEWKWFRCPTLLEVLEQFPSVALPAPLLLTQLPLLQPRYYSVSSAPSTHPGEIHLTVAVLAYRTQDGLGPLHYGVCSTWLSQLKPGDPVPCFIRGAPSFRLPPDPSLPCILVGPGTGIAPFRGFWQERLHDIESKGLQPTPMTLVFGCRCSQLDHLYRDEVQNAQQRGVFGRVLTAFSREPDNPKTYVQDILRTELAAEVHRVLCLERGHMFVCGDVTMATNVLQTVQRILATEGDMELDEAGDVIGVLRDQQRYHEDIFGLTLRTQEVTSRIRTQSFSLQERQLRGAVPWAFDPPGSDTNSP

Nitric oxide synthase 1 [1] = molecular target: T2, Nitric oxide synthase 1 (Homo sapiens, UniProt P29475); assay: Percentage inhibition of human neuronal nitric oxide synthase (nNOS) at 100 uM
T2 sequence (P29475 whole entry): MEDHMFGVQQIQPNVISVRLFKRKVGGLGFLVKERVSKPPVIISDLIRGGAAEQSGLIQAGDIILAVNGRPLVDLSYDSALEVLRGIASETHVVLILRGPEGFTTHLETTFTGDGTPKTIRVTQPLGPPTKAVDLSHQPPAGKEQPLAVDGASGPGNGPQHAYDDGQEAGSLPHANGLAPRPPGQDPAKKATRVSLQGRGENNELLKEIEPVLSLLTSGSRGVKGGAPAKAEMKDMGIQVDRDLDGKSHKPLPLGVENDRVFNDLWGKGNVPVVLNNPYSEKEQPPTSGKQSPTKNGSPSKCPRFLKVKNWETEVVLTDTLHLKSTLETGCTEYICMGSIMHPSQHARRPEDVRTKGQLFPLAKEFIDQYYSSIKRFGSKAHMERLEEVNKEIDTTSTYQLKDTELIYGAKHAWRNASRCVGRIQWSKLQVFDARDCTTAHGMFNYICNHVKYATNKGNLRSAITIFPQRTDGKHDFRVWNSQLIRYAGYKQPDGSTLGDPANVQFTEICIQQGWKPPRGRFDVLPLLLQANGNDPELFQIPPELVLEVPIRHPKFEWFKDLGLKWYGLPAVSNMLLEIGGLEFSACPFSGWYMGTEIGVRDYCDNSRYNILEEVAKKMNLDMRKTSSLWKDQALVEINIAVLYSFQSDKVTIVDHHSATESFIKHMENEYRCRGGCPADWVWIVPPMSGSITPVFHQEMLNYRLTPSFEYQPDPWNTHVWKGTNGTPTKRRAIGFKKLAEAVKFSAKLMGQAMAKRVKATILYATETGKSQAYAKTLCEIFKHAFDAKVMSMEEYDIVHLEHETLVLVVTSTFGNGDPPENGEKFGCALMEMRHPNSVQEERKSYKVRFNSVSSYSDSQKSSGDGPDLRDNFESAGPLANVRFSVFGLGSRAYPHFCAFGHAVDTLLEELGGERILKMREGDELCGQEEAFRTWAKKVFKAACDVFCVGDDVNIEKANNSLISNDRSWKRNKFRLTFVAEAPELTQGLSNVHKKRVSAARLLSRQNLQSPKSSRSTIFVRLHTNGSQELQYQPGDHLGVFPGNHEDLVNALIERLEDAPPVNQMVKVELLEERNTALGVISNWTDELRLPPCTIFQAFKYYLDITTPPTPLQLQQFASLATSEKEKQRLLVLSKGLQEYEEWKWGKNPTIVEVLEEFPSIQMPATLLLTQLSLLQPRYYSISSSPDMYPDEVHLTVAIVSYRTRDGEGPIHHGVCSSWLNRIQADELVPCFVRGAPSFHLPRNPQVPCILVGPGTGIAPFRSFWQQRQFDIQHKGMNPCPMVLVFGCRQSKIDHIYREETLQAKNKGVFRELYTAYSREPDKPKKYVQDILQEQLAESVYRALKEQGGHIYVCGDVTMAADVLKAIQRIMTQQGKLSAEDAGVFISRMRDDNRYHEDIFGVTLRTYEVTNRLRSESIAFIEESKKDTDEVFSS

[2] = molecular target: Nitric oxide synthase, inducible (Homo sapiens, UniProt P35228)
Nitric oxide synthase, inducible, sequence (P35228 whole entry): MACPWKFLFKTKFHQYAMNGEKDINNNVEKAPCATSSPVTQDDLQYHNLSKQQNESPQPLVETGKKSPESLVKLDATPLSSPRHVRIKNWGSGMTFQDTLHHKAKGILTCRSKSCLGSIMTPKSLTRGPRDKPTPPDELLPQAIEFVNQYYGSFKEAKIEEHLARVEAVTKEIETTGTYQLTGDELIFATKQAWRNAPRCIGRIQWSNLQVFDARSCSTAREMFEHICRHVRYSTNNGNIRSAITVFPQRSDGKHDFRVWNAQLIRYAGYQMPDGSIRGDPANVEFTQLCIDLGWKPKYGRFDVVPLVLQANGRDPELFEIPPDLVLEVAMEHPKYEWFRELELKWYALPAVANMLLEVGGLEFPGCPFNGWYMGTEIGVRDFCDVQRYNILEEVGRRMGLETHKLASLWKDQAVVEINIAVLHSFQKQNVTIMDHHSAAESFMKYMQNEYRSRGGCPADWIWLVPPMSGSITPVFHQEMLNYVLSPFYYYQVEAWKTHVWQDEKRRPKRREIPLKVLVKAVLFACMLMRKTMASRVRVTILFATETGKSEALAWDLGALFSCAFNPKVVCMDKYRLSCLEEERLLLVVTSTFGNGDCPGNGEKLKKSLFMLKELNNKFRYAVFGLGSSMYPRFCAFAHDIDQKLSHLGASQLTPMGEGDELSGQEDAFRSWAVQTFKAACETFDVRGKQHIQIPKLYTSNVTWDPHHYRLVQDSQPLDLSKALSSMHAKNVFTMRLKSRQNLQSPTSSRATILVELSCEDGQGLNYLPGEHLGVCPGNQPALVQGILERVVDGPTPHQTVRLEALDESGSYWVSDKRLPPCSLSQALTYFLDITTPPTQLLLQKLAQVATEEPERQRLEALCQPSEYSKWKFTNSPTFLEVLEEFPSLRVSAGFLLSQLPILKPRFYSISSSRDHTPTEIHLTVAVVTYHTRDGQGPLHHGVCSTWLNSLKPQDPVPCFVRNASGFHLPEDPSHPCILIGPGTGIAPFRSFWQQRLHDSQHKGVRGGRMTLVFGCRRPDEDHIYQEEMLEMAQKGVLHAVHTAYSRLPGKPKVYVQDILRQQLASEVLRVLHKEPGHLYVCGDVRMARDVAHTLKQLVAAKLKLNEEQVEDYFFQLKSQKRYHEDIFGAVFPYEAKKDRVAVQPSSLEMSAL

Nitric oxide synthase 1 [3] = molecular target: T2, Nitric oxide synthase 1
Description: In vitro inhibition of human neuronal nitric oxide synthase.

[4] = molecular target: T3, Nitric oxide synthase 3 (Homo sapiens) (UniProt P29474); assay: Percentage inhibition of human endothelial nitric oxide synthase (eNOS) at 100 uM
T3 sequence (whole entry): T1 sequence (P29474 whole entry)

Row | IC50 (Nitric oxide synthase 3) | inhibition (Nitric oxide synthase 1 [1]) | IC50 [2] | IC50 (Nitric oxide synthase 1 [3]) | inhibition [4] | SMILES
1 | 30 µM | < 20% | 86 µM | > 100 µM | – | CNc1cc(C)cc(C)n1
2 | – | – | – | – | < 20% | COc1ccnc(NC2CCN(C(=O)c3ccc(C#N)cc3)CC2)c1
3 | 100 µM | – | 0.53 µM | 28 µM | – | COc1ccnc(NC2CCN(C(=O)c3ccccc3)CC2)c1
4 | – | – | – | – | < 20% | N#Cc1ccc(C(=O)N2CCC3(CC2)N=C(N)c2c(F)ccc(F)c2N3)cn1
5 | 34 µM | – | 0.07 µM | 18 µM | – | CC(=N)NCCSCC[C@H](N)C(=O)O [GW-274150]
6 | – | – | – | 1.6 µM | – | CC(=N)NCCCC[C@H](N)C(=O)O [L-NIL]
7 | 36 µM | – | 0.053 µM | 7.8 µM | – | COc1ccnc(NC2CCN(C(=O)c3ccc(Cl)cc3)CC2)c1
8 | – | – | – | 2.2 µM | – | CCc1ccnc(N)c1
9 | 1 µM | – | 1 µM | 1 µM | – | COc1ccnc(N)c1
10 | > 100 µM | – | 3.8 µM | 96 µM | < 20% | CCOC(=O)N1CCC(Nc2cc(OCC)ccn2)CC1
11 | 4.8 µM | – | 0.026 µM | 0.24 µM | – | CCCC1CCCCCC(N)=N1 (stereo not given)
12 | > 100 µM | < 20% | 13 µM | > 100 µM | < 20% | CCOC(=O)N1CCC(Nc2ccccn2)CC1
13 | 0.17 µM | – | 0.045 µM | 0.098 µM | – | Cc1cc(C)nc(N)c1
